Source: patent EP4635500A1, “THERAPEUTIC AGENT FOR BACTERIAL INFECTION” (Sumitomo Pharma Co., Ltd., priority 2022, dated 2024)
Converted amounts (≈) assume the structure as drawn.

How the values were obtained:
Bacteroides spp. = experiment: MIC, agar dilution, anaerobic bacteria (Example 9, Tables 17, 22); format: cell-based; conditions: for MIC: (n)=Compound A µg/mL, 0=Compound A alone antibacterial
Prevotella spp. = experiment: MIC, agar dilution, anaerobic bacteria (Example 9, Tables 18, 23); format: cell-based; conditions: for MIC: (n)=Compound A µg/mL, 0=Compound A alone antibacterial

Question: Which results are given for `Cc1ncc([N+](=O)[O-])n1CCO` [Metronidazole]?
Answer: MICrange (Bacteroides spp.; Bacteroides spp.): ≤0.12 to 2 µg/mL; MIC50 (Bacteroides spp.; Bacteroides spp., read-out: MIC50): 1 mg/L (≈ 5.84 µM); MIC90 (Bacteroides spp.; Bacteroides spp., read-out: MIC90): 1 mg/L (≈ 5.84 µM); MIC (Bacteroides spp.; Bacteroides, KUB No. 2982 Bacteroidesfragilis): 1 mg/L (≈ 5.84 µM); MIC (Bacteroides spp.; Bacteroides, KUB No. 6464 Bacteroides vulgarus): 0.5 mg/L (≈ 2.92 µM); MIC (Bacteroides spp.; Bacteroides, KUB No. 6480 Bacteroides thetaioraomicron): 1 mg/L (≈ 5.84 µM); MIC (Bacteroides spp.; Bacteroides, KUB No. 6487 Bacteroides thetaiotamicron): 0.25 mg/L (≈ 1.46 µM); MIC (Bacteroides spp.; KUB No. 2977 Bacteroides thetaiotaomicron ATCC 29741): 2 mg/L (≈ 11.7 µM); MIC (Bacteroides spp.; KUB No. 2983 Bacteroides fragilis): 0.25 mg/L (≈ 1.46 µM); MIC (Bacteroides spp.; KUB No. 2984 Bacteroides thetaiotaomicron): 1 mg/L (≈ 5.84 µM); MIC (Bacteroides spp.; KUB No. 3003 Bacteroides fragilis ATCC 25285): 0.5 mg/L (≈ 2.92 µM); MIC (Bacteroides spp.; KUB No. 3009 Bacteroides ovatus): 1 mg/L (≈ 5.84 µM); MIC (Bacteroides spp.; KUB No. 6458 Bacteroides fragilis): 0.5 mg/L (≈ 2.92 µM); MIC (Bacteroides spp.; KUB No. 6459 Bacteroides stercoris): 1 mg/L (≈ 5.84 µM); MIC (Bacteroides spp.; KUB No. 6460 Bacteroides thetaiotaomicron): 2 mg/L (≈ 11.7 µM); MIC (Bacteroides spp.; KUB No. 6461 Bacteroides fragilis): 0.5 mg/L (≈ 2.92 µM); MIC (Bacteroides spp.; KUB No. 6463 Bacteroides fragilis): 0.5 mg/L (≈ 2.92 µM); MIC (Bacteroides spp.; KUB No. 6465 Bacteroides thetaiotaomicron): 2 mg/L (≈ 11.7 µM); MIC (Bacteroides spp.; KUB No. 6466 Bacteroides fragilis): 1 mg/L (≈ 5.84 µM); MIC (Bacteroides spp.; KUB No. 6467 Bacteroides fragilis): 0.5 mg/L (≈ 2.92 µM); MIC (Bacteroides spp.; KUB No. 6468 Bacteroides fragilis): 1 mg/L (≈ 5.84 µM); MIC (Bacteroides spp.; KUB No. 6469 Bacteroides fragilis): 1 mg/L (≈ 5.84 µM); MIC (Bacteroides spp.; KUB No. 6470 Bacteroides fragilis): 2 mg/L (≈ 11.7 µM); MIC (Bacteroides spp.; KUB No. 6471 Bacteroides fragilis): 1 mg/L (≈ 5.84 µM); MIC (Bacteroides spp.; KUB No. 6472 Bacteroides stercoris): 0.5 mg/L (≈ 2.92 µM); MIC (Bacteroides spp.; KUB No. 6473 Bacteroides fragilis): 1 mg/L (≈ 5.84 µM); MIC (Bacteroides spp.; KUB No. 6474 Bacteroides fragilis): 0.5 mg/L (≈ 2.92 µM); MIC (Bacteroides spp.; KUB No. 6475 Bacteroides thetaiotaomicron): 1 mg/L (≈ 5.84 µM); MIC (Bacteroides spp.; KUB No. 6476 Bacteroides vulgatus): 1 mg/L (≈ 5.84 µM); MIC (Bacteroides spp.; KUB No. 6477 Bacteroides fragilis): ≤ 0.12 mg/L; MIC (Bacteroides spp.; KUB No. 6478 Bacteroides fragilis): 0.25 mg/L (≈ 1.46 µM); MIC (Bacteroides spp.; KUB No. 6481 Bacteroides fragilis): 1 mg/L (≈ 5.84 µM); MIC (Bacteroides spp.; KUB No. 6483 Bacteroides fragilis): 0.25 mg/L (≈ 1.46 µM); MIC (Bacteroides spp.; KUB No. 6484 Bacteroides fragilis): 0.5 mg/L (≈ 2.92 µM); MIC (Bacteroides spp.; KUB No. 6485 Bacteroides vulgatus): 0.25 mg/L (≈ 1.46 µM); MIC (Bacteroides spp.; KUB No. 6486 Bacteroides fragilis): 1 mg/L (≈ 5.84 µM); MIC (Bacteroides spp.; KUB No. 6490 Bacteroides fragilis): 0.5 mg/L (≈ 2.92 µM); MIC (Bacteroides spp.; KUB No. 6491 Bacteroides fragilis): 1 mg/L (≈ 5.84 µM); MIC (Bacteroides spp.; KUB No. 6493 Bacteroides thetaiotaomicron): 1 mg/L (≈ 5.84 µM); MIC (Bacteroides spp.; KUB No. 6496 Bacteroides fragilis): 1 mg/L (≈ 5.84 µM); MIC (Bacteroides spp.; KUB No. 6497 Bacteroides vulgatus): 1 mg/L (≈ 5.84 µM); MIC (Bacteroides spp.; KUB No. 6502 Bacteroides fragilis): 0.25 mg/L (≈ 1.46 µM); MIC (Bacteroides spp.; KUB No. 6503 Bacteroides thetaiotaomicron): 1 mg/L (≈ 5.84 µM); MIC (Bacteroides spp.; KUB No. 6504 Bacteroides caccae): 1 mg/L (≈ 5.84 µM); MIC (Bacteroides spp.; KUB No. 6506 Bacteroides thetaiotaomicron): 1 mg/L (≈ 5.84 µM); MIC (Bacteroides spp.; KUB No. 6509 Bacteroides fragilis): ≤ 0.12 mg/L; MIC (Bacteroides spp.; KUB No. 6511 Bacteroides salyersiae): 1 mg/L (≈ 5.84 µM); MIC (Bacteroides spp.; KUB No. 6513 Bacteroides fragilis): 0.5 mg/L (≈ 2.92 µM); MIC (Bacteroides spp.; KUB No. 6515 Bacteroides thetaiotaomicron): 1 mg/L (≈ 5.84 µM); MIC (Bacteroides spp.; KUB No. 6518 Bacteroides fragilis): 0.5 mg/L (≈ 2.92 µM); MIC (Bacteroides spp.; KUB No. 6522 Bacteroides fragilis): 1 mg/L (≈ 5.84 µM); MIC (Bacteroides spp.; KUB No. 6523 Bacteroides fragilis): 1 mg/L (≈ 5.84 µM); MIC (Bacteroides spp.; KUB No. 6525 Bacteroides fragilis): 1 mg/L (≈ 5.84 µM); MIC (Bacteroides spp.; KUB No. 6527 Bacteroides thetaiotaomicron): 1 mg/L (≈ 5.84 µM); MIC (Bacteroides spp.; KUB No. 6530 Bacteroides thetaiotaomicron): 1 mg/L (≈ 5.84 µM); MIC (Bacteroides spp.; KUB No. 6535 Bacteroides fragilis): 0.5 mg/L (≈ 2.92 µM); MIC (Bacteroides spp.; KUB No. 6544 Bacteroides vulgatus): 1 mg/L (≈ 5.84 µM); MIC (Bacteroides spp.; KUB No. 6545 Bacteroides thetaiotaomicron): 0.5 mg/L (≈ 2.92 µM); MIC (Bacteroides spp.; KUB No. 6556 Bacteroides vulgatus): 0.5 mg/L (≈ 2.92 µM); MIC (Prevotella spp.; KUB No. 2989 Prevotella histicola): 0.5 mg/L (≈ 2.92 µM); MIC (Prevotella spp.; KUB No. 2991 Prevotella intermedia): 0.5 mg/L (≈ 2.92 µM); MIC (Prevotella spp.; KUB No. 2992 Prevotella buccae): 1 mg/L (≈ 5.84 µM); MIC (Prevotella spp.; KUB No. 3005 Prevotella melaninogenica): 1 mg/L (≈ 5.84 µM); MIC (Prevotella spp.; KUB No. 6558 Prevotella heparinolytica): 0.25 mg/L (≈ 1.46 µM); MIC (Prevotella spp.; KUB No. 6559 Prevotella intermedia): 2 mg/L (≈ 11.7 µM); MIC (Prevotella spp.; KUB No. 6560 Prevotella nigrescens): 0.5 mg/L (≈ 2.92 µM); MIC (Prevotella spp.; KUB No. 6561 Prevotella melaninogenica): 1 mg/L (≈ 5.84 µM); MIC (Prevotella spp.; KUB No. 6563 Prevotella nigrescens): 0.5 mg/L (≈ 2.92 µM); MIC (Prevotella spp.; KUB No. 6564 Prevotella buccae): 2 mg/L (≈ 11.7 µM); MIC (Prevotella spp.; KUB No. 6565 Prevotella nigrescens): 0.5 mg/L (≈ 2.92 µM); MIC (Prevotella spp.; KUB No. 6567 Prevotella melaninogenica): 0.5 mg/L (≈ 2.92 µM); MIC (Prevotella spp.; KUB No. 6568 Prevotella intermedia): 1 mg/L (≈ 5.84 µM); MIC (Prevotella spp.; KUB No. 6569 Prevotella nanceiensis): 2 mg/L (≈ 11.7 µM); MIC (Prevotella spp.; KUB No. 6570 Prevotella intermedia): 2 mg/L (≈ 11.7 µM); MIC (Prevotella spp.; KUB No. 6571 Prevotella denticola): 0.25 mg/L (≈ 1.46 µM); MIC (Prevotella spp.; KUB No. 6572 Prevotella melaninogenica): 0.5 mg/L (≈ 2.92 µM); MIC (Prevotella spp.; KUB No. 6574 Prevotella oris): 0.5 mg/L (≈ 2.92 µM); MIC (Prevotella spp.; KUB No. 6575 Prevotella nigrescens): 1 mg/L (≈ 5.84 µM); MIC (Prevotella spp.; KUB No. 6576 Prevotella intermedia): 0.25 mg/L (≈ 1.46 µM); MIC (Prevotella spp.; KUB No. 6579 Prevotella pallens): 0.5 mg/L (≈ 2.92 µM); MIC (Prevotella spp.; KUB No. 6581 Prevotella intermedia): 2 mg/L (≈ 11.7 µM); MIC (Prevotella spp.; KUB No. 6582 Prevotella melaninogenica): 0.5 mg/L (≈ 2.92 µM); MIC (Prevotella spp.; KUB No. 6585 Prevotella baroniae): 1 mg/L (≈ 5.84 µM); MIC (Prevotella spp.; KUB No. 6587 Prevotella melaninogenica): ≤ 0.12 mg/L; MIC (Prevotella spp.; KUB No. 6588 Prevotella nigrescens): 0.5 mg/L (≈ 2.92 µM); MIC (Prevotella spp.; KUB No. 6589 Prevotella buccae): 0.5 mg/L (≈ 2.92 µM); MIC (Prevotella spp.; KUB No. 6590 Prevotella buccae): 0.5 mg/L (≈ 2.92 µM); MIC (Prevotella spp.; KUB No. 6591 Prevotella intermedia): 0.5 mg/L (≈ 2.92 µM); MIC (Prevotella spp.; KUB No. 6592 Prevotella jejuni): 0.5 mg/L (≈ 2.92 µM); MIC (Prevotella spp.; KUB No. 6600 Prevotella intermedia): 0.5 mg/L (≈ 2.92 µM); MIC (Prevotella spp.; KUB No. 6601 Prevotella melaninogenica): 0.5 mg/L (≈ 2.92 µM); MIC (Prevotella spp.; KUB No. 6603 Prevotella melaninogenica): 0.25 mg/L (≈ 1.46 µM); MIC (Prevotella spp.; KUB No. 6609 Prevotella buccae): 0.5 mg/L (≈ 2.92 µM); MIC (Prevotella spp.; KUB No. 6611 Prevotella nigrescens): 1 mg/L (≈ 5.84 µM); MIC (Prevotella spp.; KUB No. 6612 Prevotella oris): 0.5 mg/L (≈ 2.92 µM); MIC (Prevotella spp.; KUB No. 6613 Prevotella buccae): 0.5 mg/L (≈ 2.92 µM); MIC (Prevotella spp.; KUB No. 6614 Prevotella intermedia): 1 mg/L (≈ 5.84 µM); MIC (Prevotella spp.; KUB No. 6615 Prevotella buccae): 1 mg/L (≈ 5.84 µM); MIC (Prevotella spp.; KUB No. 6617 Prevotella buccae): 2 mg/L (≈ 11.7 µM); MIC (Prevotella spp.; KUB No. 6618 Prevotella melaninogenica): 0.25 mg/L (≈ 1.46 µM); MIC (Prevotella spp.; KUB No. 6622 Prevotella loescheii): 1 mg/L (≈ 5.84 µM); MIC (Prevotella spp.; KUB No. 6623 Prevotella nigrescens): 1 mg/L (≈ 5.84 µM); MIC (Prevotella spp.; KUB No. 6625 Prevotella melaninogenica): 0.5 mg/L (≈ 2.92 µM); MIC (Prevotella spp.; KUB No. 6626 Prevotella loescheii): 1 mg/L (≈ 5.84 µM); MIC (Prevotella spp.; KUB No. 6629 Prevotella bivia): 8 mg/L (≈ 46.7 µM); MIC (Prevotella spp.; KUB No. 6630 Prevotella nigrescens): 0.5 mg/L (≈ 2.92 µM); MIC (Prevotella spp.; KUB No. 6631 Prevotella jejuni): 0.5 mg/L (≈ 2.92 µM); MICrange (Prevotella spp.; Prevotella spp.): ≤0.12 to 8 µg/mL; MIC50 (Prevotella spp.; Prevotella spp., read-out: MIC50): 0.5 mg/L (≈ 2.92 µM); MIC90 (Prevotella spp.; Prevotella spp., read-out: MIC90): 2 mg/L (≈ 11.7 µM); MIC (Prevotella spp.; Prevotella, KUB No. 6583 Prevotella nonceiensis): 2 mg/L (≈ 11.7 µM); MIC (Prevotella spp.; Prevotella, KUB No. 6604 Prevotella nonceiensis): 1 mg/L (≈ 5.84 µM); MIC (Prevotella spp.; po, KUB No. 6566 Prevotella oralis): 0.25 mg/L (≈ 1.46 µM)
